This passage reports Toxicity, IC50 and Water solubility results from patent US20050176758A1, “NOVEL COMPOUNDS AND METHODS FOR SYNTHESIS AND THERAPY” (priority 1995, published 2005).

Usually IC50 stands for the midpoint of a concentration-inhibition curve. Low values mean higher potency, high ones lower potency.

For data set [1] the following is noted: literature reports; cited from earlier work.
Another data set deals with neuraminidase (Influenza A virus, UniProt P03468).
The nature of data set [2]: Water solubility of salt form. As to conditions: HCl salt form (dissolved in 3N HCl and lyophilized). Type of data set: physicochemical. As for the experimental part: Amino ethyl ester 262: Triphenyl phosphine (342 mg, 1.30 mmol) was added in one portion to a solution of 261 ([…], 0.80 mmol) in THF (17 mL) and water (1.6 mL). The reaction was then heated at 50° C. for 10 h, cooled and concentrated in vacuo to give a pale white solid. Purification of the crude solid by flash chromatography on silica gel (50% methanol in ethyl acetate) gave 242 mg (96%) of the amino ethyl ester 262 as a pale solid. The amino ethyl ester is dissolved in 3N HCl and lyophilized to give the corresponding water soluble HCl salt form. ^1H NMR (D2O, 300 MHz): δ 6.84 (s, 1H); 4.36-4.30 (br m, 1H); 4.24 (q, 2H, J=7.2 Hz); 4.05 (dd, 1H, J=9.0, 11.7 Hz); 3.63-3.50 (m, 2H); 2.95 (dd, 1H, J=5.7, 17.1 Hz); 2.57-2.45 (m, 1H); 1.60-1.39 (m, 4H); 1.27 (t, 3H, J=7.2 Hz); 0.89-0.80 (m, 6H).

Where only a bound is given, the exact number is not on record here.

neuraminidase, sequence (P03468 whole entry): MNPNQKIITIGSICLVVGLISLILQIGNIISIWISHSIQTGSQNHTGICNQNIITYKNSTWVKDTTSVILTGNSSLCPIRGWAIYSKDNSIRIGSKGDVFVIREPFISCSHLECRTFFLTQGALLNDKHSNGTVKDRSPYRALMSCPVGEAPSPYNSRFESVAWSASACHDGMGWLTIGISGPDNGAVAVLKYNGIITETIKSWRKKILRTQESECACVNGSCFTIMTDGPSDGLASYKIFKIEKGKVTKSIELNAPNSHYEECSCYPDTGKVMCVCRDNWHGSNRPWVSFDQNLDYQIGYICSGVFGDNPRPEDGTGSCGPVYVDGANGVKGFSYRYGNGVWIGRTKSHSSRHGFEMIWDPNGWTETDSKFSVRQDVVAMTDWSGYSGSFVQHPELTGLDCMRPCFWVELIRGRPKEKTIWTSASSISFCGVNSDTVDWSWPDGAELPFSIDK
Description for neuraminidase: Compositions of the invention are screened for inhibitory activity against neuraminidase by any of the conventional techniques for evaluating enzyme activity.
Enzyme Inhibition: Using the methods of screening in vitro activity described above, the following activities were observed (+10-100 μm, ++1-10 μm, +++<1.0 μm):

On to `CC(=O)N[C@H]1[C@H]([C@H](O)[C@H](O)CO)OC(C(=O)O)=C[C@@H]1N=C(N)N` [GG167, 4-guanidino-2,4-dideoxy-2,3-dehydro-N-acetylneuraminic acid], for which the Toxicity result in data set [1] was “nontoxic”.

Turning to `CC(=O)N[C@@H]1[C@@H](N)CC(C(=O)O)=C[C@H]1OCC(O)CO` (stereo partly shown) [compound 8], the IC50 against neuraminidase fell in the range of 1000 to 10000 nM.

With `CC(=O)NC1C(O)C=C(C(=O)O)CC1NC(=N)N` (stereo not shown) [compound 94], the IC50 against neuraminidase is < 1000 nM.

`CCOC(=O)C1=CC(OC(CC)CC)C(NC(C)=O)C(N)C1` (stereo not shown) [compound 262]: the Water solubility result in data set [2] was “water soluble”.
